Literature values, collected in patent publication US6770617B2, “Softener composition” (Kao Corporation, priority 2001, dated 2004).

Details: 1-octanol/water; actual value if there was one, otherwise Clog P calculated with CLOGP v4.01

log P	Compound
0.54	CCCCCOCC(O)CO (stereo not drawn) [(c-1), Pentyl glyceryl ether]
0.99	CCCOC(C)COC(C)CO (stereo not drawn) [(c-2), Dipropylene glycol monopropyl ether]
1.32	OCCOCCOCCOc1ccccc1 [(c-3), Triethylene glycol monophenyl ether]
